The values that follow come from patent publication US11851419B2, “GLP-1R modulating compounds” (Gilead Sciences, Inc., priority 2020, dated 2023).

The target in experiment [1] is T1, GLP-1R (Homo sapiens, UniProt P43220). As to the kind of experiment: GLP-1R Activation - cAMP Assay 1 (cAMP increase in CHO cells stably expressing GLP-1R). Format: cell-based. The following applies: 10 point dose response, 30 minutes incubation at 37° C., cAMP Gs Dynamic Kit. The method, then: GLP-1R Activation—cAMP Assay 1
T1 sequence (P43220 24-463): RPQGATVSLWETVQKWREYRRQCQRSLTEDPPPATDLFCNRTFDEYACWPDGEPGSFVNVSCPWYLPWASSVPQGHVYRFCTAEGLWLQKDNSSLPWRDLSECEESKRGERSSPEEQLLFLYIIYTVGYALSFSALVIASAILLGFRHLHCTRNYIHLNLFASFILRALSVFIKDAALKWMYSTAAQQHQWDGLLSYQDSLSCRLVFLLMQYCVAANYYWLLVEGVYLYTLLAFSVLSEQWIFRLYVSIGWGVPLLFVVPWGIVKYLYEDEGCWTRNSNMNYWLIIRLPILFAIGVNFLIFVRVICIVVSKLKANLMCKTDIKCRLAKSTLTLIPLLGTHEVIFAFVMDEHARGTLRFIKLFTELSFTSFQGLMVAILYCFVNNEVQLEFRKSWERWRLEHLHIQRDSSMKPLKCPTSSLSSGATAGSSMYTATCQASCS
GLP-1R activation by a compound of the present disclosure was quantified by measuring cAMP increase in CHO cells stably expressing GLP-1R (MultiSpan product #C1267-1a). The cells were harvested and plated in growth medium (DMEM/F-12 (Corning product #10-090-CV) supplemented with 10% FBS (HyClone product #SH30071-03), penicillin/streptomycin (Corning product #30-002CI) and 10 µg/ml puromycin (Gibco product #A11138-03)) at 1,000 cells/well in a 384-well plate (Greiner product #781080). The cells were then incubated overnight at 37° C., 5% CO2. The next day, the medium was removed and the cells were washed with DPBS (Corning product #21-031-CM) before adding the assay medium (HBSS, Corning product #21-023-CV) with 20 mM Hepes (Gibco product #15630-080) and 0. 1% BSA (Rockland Immunochemicals product #BSA-1000)). Following the medium change, the cells were incubated for 1 hour at 37° C., 5% CO2. The tested GLP-1 compound was added to the cells in a 10 point dose response followed by a 30 minutes incubation at 37° C., 5% CO2. cAMP concentration increase was then detected using Cisbio's cAMP Gs Dynamic Kit (product #62AM4PEC) according to the manufacturer's protocol. The response was plotted against the log of the agonist concentration and fitted to a sigmoidal equation to determine the EC50.

Experiment [2] addresses T1, GLP-1R. As to the kind of experiment: GLP-1R Activation - cAMP Assay 2 (cAMP increase in CHO cells stably expressing GLP-1R, pre-spotted agonists). The following applies: assay buffer or 100% Human Plasma (not given), 30 minutes at 37° C. Format: cell-based. The method, then:
GLP-1R Activation—cAMP Assay 2
GLP-1R activation by small molecule agonists is quantified by measuring cAMP increase in CHO cells stably expressing GLP-1R (MultiSpan product #C1267-1a). 50 nL of agonists are pre-spotted in a 10 point dose response onto 384-well plate (Corning product #CL3826) using the Labcyte Echo System. The cells are harvested and plated in assay buffer (HBSS (Corning product #21-023-CV) with 20 mM Hepes (Gibco product #15630-080) and 0.1% BSA (Rockland Immunochemicals product #BSA-1000)) or 100% Human Plasma (Innovative Research product #50-643-396) at 1,000 cells/well, 10 µL/well, onto the pre-spotted plates. The cells are then incubated for 30 minutes at 37° C., 5% CO2. cAMP concentration increase is then detected using Cisbio's cAMP Gs Dynamic Kit (product #62AM4PEC) according to the manufacturer's protocol. The response is plotted against the log of the agonist concentration and fitted to a sigmoidal equation to determine the EC50.

pEC50: −log10 of the molar value.

Consider `COCCn1c(CN2CCC(c3cccc(OCc4ccc(C#N)cc4F)n3)CC2)nc2c(C3CC3)cc(C(=O)O)cc21` [Example 26, 2-((4-(6-((4-cyano-2-fluorobenzyl)oxy)pyridin-2-yl)piperidin-1-yl)methyl)-4-cyclopropyl-1-(2-methoxyethyl)-1H-benzo[d]imidazole-6-carboxylic Acid], for which the negative logarithm of the EC50 (pEC50) is 7.27 in experiment [1] and 7.32 in experiment [2]. The matching figures for `COCCn1c(CN2CCC(c3cccc(OCc4ccc(C#N)cc4F)n3)CC2)nc2c(C#N)cc(C(=O)O)cc21` [Example 25, 4-cyano-2-((4-(6-((4-cyano-2-fluorobenzyl)oxy)pyridin-2-yl)piperidin-1-yl)methyl)-1-(2-methoxyethyl)-1H-benzo[d]imidazole-6-carboxylic Acid]: 8.46 and 8.15. `Cn1ccc(-c2cc(C(=O)O)cc3c2nc(CN2CCN(c4cccc(OCc5ccc(C#N)cc5F)n4)CC2)n3C[C@@H]2CCO2)n1` [Example 19, 2-[[4-[6-[(4-cyano-2-fluoro-phenyl)methoxy]-2-pyridyl]piperazin-1-yl]methyl]-7-(1-methylpyrazol-3-yl)-3-[[(2S)-oxetan-2-yl]methyl]benzimidazole-5-carboxylic Acid]: in experiment [2], the pEC50 is 9.52. `CC(C)(C#N)Cn1c(CN2CCC(c3cccc(OCc4ccc(C#N)cc4F)n3)CC2)nc2c(F)cc(C(=O)O)cc21` [Example 15] had a negative-log EC50 (pEC50) in experiment [1] of 9.62. As for `COCCn1c(C2CC23CCN(c2cccc(OCc4ccc(C#N)cc4F)n2)CC3)nc2c(F)cc(C(=O)O)cc21` (stereo not drawn) [Example 7, 2-[6-[6-[(4-cyano-2-fluoro-phenyl)methoxy]-2-pyridyl]-6-azaspiro[2.5]octan-2-yl]-7-fluoro-3-(2-methoxyethyl)benzimidazole-5-carboxylic Acid], the pEC50 is 8.42 in experiment [1] and 7.99 in experiment [2]. The corresponding values for `COCCn1c(CN2CCC(c3cccc(OCc4ccc(C#N)cc4F)n3)CC2)nc2c(F)c(F)c(C(=O)O)cc21` [Example 10, 2-((4-(6-((4-cyano-2-fluorobenzyl)oxy)pyridin-2-yl)piperidin-1-yl)methyl)-4,5-difluoro-1-(2-methoxyethyl)-1H-benzo[d]imidazole-6-carboxylic Acid] are 7.74 and 7.95. `COCCn1c(CN2CCC(c3cccc(OCc4ccc(C#N)cc4F)n3)CC2)nc2c(C)cc(C(=O)O)cc21` [Example 28, 2-((4-(6-((4-cyano-2-fluorobenzyl)oxy)pyridin-2-yl)piperidin-1-yl)methyl)-1-(2-methoxyethyl)-4-methyl-1H-benzo[d]imidazole-6-carboxylic Acid] showed a pEC50 in experiment [1] of 7.68. Regarding `COCCn1c(CN2CCC(c3cccc(OCc4ccc(C#N)cc4F)n3)CC2)nc2c(Cl)cc(C(=O)O)cc21` [Example 9], the negative logarithm of the EC50 (pEC50) was 8.18 in experiment [1] and 8.59 in experiment [2]. In experiment [2], `N#Cc1ccc(COc2cccc(N3CCN(Cc4nc5c(F)cc(C(=O)O)cc5n4C[C@@H]4CCO4)CC3)n2)c(F)c1` [Example 23] showed a negative logarithm of the EC50 (pEC50) of 10.51. On the same count and under the same terms, with `COCCn1c(CN2CCC(c3cccc(OCc4ccc(C#N)cc4F)n3)CC2)nc2c(F)c(Nc3ccccc3)c(C(=O)O)cc21` [Example 1, 2-((4-(6-((4-cyano-2-fluorobenzyl)oxy)pyridin-2-yl)piperidin-1-yl)methyl)-4-fluoro-1-(2-methoxyethyl)-5-(phenylamino)-1H-benzo[d]imidazole-6-carboxylic acid] the figure was 7.82.

Take `COCCn1c(CN2CCC(c3cccc(OCc4ccc(C#N)cc4F)n3)CC2)nc2c(-c3cnn(C)c3)cc(C(=O)O)cc21` [Example 29, 2-((4-(6-((4-cyano-2-fluorobenzyl)oxy)pyridin-2-yl)piperidin-1-yl)methyl)-1-(2-methoxyethyl)-4-(1-methyl-1H-pyrazol-4-yl)-1H-benzo[d]imidazole-6-carboxylic Acid]: in experiment [1], the negative-log EC50 (pEC50) was 6.98. For `COCCn1c(CN2CCC(c3cccc(OCc4ccc(C#N)cc4F)n3)CC2)nc2c(COC)cc(C(=O)O)cc21` [Example 27, 2-((4-(6-((4-cyano-2-fluorobenzyl)oxy)pyridin-2-yl)piperidin-1-yl)methyl)-1-(2-methoxyethyl)-4-(methoxymethyl)-1H-benzo[d]imidazole-6-carboxylic Acid], the pEC50 in experiment [1] was 7.84.

Consider `COCCn1c(CC2CCN(c3cccc(OCc4ccc(C#N)cc4F)n3)CC2)nc2c(F)cc(C(=O)O)cc21` [Example 8], for which the pEC50 is 8.28 in experiment [1] and 7.88 in experiment [2]. As for `CC(C)(C)OC(=O)Nc1cc2nc(CN3CCC(c4cccc(OCc5ccc(C#N)cc5F)n4)CC3)n(C[C@@H]3CCO3)c2cc1C(=O)O` [Example 24, 6-(tert-butoxycarbonylamino)-2-[[4-[6-[(4-cyano-2-fluoro-phenyl)methoxy]-2-pyridyl]-1-piperidyl]methyl]-3-[[(2S)-oxetan-2-yl]methyl]benzimidazole-5-carboxylic Acid], the negative logarithm of the EC50 (pEC50) in experiment [2] is 9.29. On the same count and under the same terms, with `N#Cc1ccc(COc2nc(C3CCN(Cc4nc5c(F)cc(C(=O)O)cc5n4C[C@@H]4CCO4)CC3)ccc2F)c(F)c1` [Example 20, 2-[[4-[6-[(4-cyano-2-fluoro-phenyl)methoxy]-5-fluoro-2-pyridyl]-1-piperidyl]methyl]-7-fluoro-3-[[(2S)-oxetan-2-yl]methyl]benzimidazole-5-carboxylic Acid] the figure was 10.15. In experiment [1], `COCCn1c(CN2CCC(c3cccc(OCc4ccc(C#N)cc4F)n3)CC2)nc2c(F)cc(C(=O)O)cc21` [Example 14, 2-[[4-[6-[(4-cyano-2-fluoro-phenyl)methoxy]-2-pyridyl]-1-piperidyl]methyl]-7-fluoro-3-(2-methoxyethyl)benzimidazole-5-carboxylic Acid] gave a negative logarithm of the EC50 (pEC50) of 8.98. Compound `COCCn1c(C[C@H]2CC[C@@H](c3cccc(OCc4ccc(C#N)cc4F)n3)CC2)nc2c(-c3ccn(C)n3)cc(C(=O)O)cc21` [Example 31, 2-(((1s,4s)-4-(6-((4-cyano-2-fluorobenzyl)oxy)pyridin-2-yl)cyclohexyl)methyl)-1-(2-methoxyethyl)-4-(1-methyl-1H-pyrazol-3-yl)-1H-benzo[d]imidazole-6-carboxylic Acid] showed a pEC50 in experiment [2] of 6.87.

As for `CC(C)(O)C#Cc1cc2nc(CN3CCC(c4cccc(OCc5ccc(C#N)cc5F)n4)CC3)n(C[C@@H]3CCO3)c2cc1C(=O)O` [Example 16, (S)-2-((4-(6-((4-cyano-2-fluorobenzyl)oxy)pyridin-2-yl)piperidin-1-yl)methyl)-5-(3-hydroxy-3-methylbut-1-yn-1-yl)-1-(oxetan-2-ylmethyl)-1H-benzo[d]imidazole-6-carboxylic Acid], the pEC50 in experiment [2] was 7.54. The same measure, in the same setting: with `N#Cc1ccc(COc2nc(N3CCN(Cc4nc5c(F)cc(C(=O)O)cc5n4C[C@@H]4CCO4)CC3)ccc2F)c(F)c1` [Example 22, 2-[[4-[6-[(4-cyano-2-fluoro-phenyl)methoxy]-5-fluoro-2-pyridyl]piperazin-1-yl]methyl]-7-fluoro-3-[[(2S)-oxetan-2-yl]methyl]benzimidazole-5-carboxylic Acid] the figure was 9.66. On the same count and under the same terms, next, `Cn1ccc(-c2cc(C(=O)O)cc3c2nc(CN2CCC(c4cccc(OCc5ccc(C#N)cc5F)n4)CC2)n3C[C@@H]2CCO2)n1` [Example 18, 2-[[4-[6-[(4-cyano-2-fluoro-phenyl)methoxy]-2-pyridyl]-1-piperidyl]methyl]-7-(1-methylpyrazol-3-yl)-3-[[(2S)-oxetan-2-yl]methyl]benzimidazole-5-carboxylic Acid]: 9.01; `N#Cc1ccc(COc2cccc(C3CCN(Cc4nc5c(-c6ccccn6)cc(C(=O)O)cc5n4C[C@@H]4CCO4)CC3)n2)c(F)c1` [Example 5, Methyl 2-[[4-[6-[(4-cyano-2-fluoro-phenyl)methoxy]-2-pyridyl]-1-piperidyl]methyl]-3-[[(2S)-oxetan-2-yl]methyl]-7-(2-pyridyl)benzimidazole-5-carboxylic Acid]: 8.01.

In general, pEC50 refers to the EC50 on a negative log10 scale, so that one unit is a factor of ten. The low end stands for a large EC50, the high end for a small EC50.
